Measured values taken from patent US20160235778A1, “COMPOSITIONS CONTAINING PUFA, URIDINE AND CHOLINE AND METHODS OF USE THEREOF” (MASSACHUSETTS INSTITUTE OF TECHNOLOGY, priority 2014, published 2016).

Assays:
[1] = tested on: Rat hippocampal cells; assay: 14C-choline incorporation into PC in cultured hippocampal neurons; type: cell-based; conditions: DHA+choline, 14C-choline 2 h, FIG. 10
Experimental: Rat hippocampal cells were cultured for 3 weeks in Neutrobasal plus B27 medium, to reach full maturation. On the day of the experiment, cells were incubated with DMEM+choline, with or without added DHA. ^14C-choline was added, cells were incubated for an additional 2 h, and newly-formed ^14C-labeled PC was extracted and measured as described in Example 1.

[2] = tested on: brain phospholipids; assay: Brain phospholipid levels in pups of treated pregnant and nursing mothers; type: in vivo; conditions: rat pups
Experimental: In another study, pregnant rats were allowed to consume ad libitum, for 10 days before parturition and 20 days while nursing, either a choline-containing control diet or this diet supplemented with uridine as UMP; half of each group also received DHA or its diluent daily, by gavage. Pups were then sacrificed and brain slices were examined to determine numbers of hippocampal dendritic spines.
Pregnant and nursing rats were administered DHA and/or uridine as described in Example 9. At 20 days post-birth, rats were sacrificed and brain samples were obtained and assayed for phospholipids. Administration of DHA alone increased brain PC, PI, PE, and sphingomyelin (SM) per cell (DNA) by 36, 166, 38, and 78%, respectively. UMP markedly amplified the effects of DHA to 66, 210, 68, and 99% of control, respectively (Table 8). These increases were greater than those observed in adult animals. Similar results were obtained when normalizing to protein (Table 9). Thus, administration of DHA and/or uridine to pregnant and nursing mothers is able to increase phospholipid levels in the offspring.

[3] = tested on: brain phospholipids; assay: Brain phospholipid levels in gerbils given UMP diet and/or PUFA by gavage; type: in vivo, gerbil; set-up: PC / PE / PS / PI: unit not given here
Experimental: Control standard diet (Table 4) consisted of Teklad Global 16% protein rodent diet (Harlan Teklad, Madison, Wis.), which contained 0.1% choline chloride (CC), corresponding to a daily dose of 50 mg/kg/day. UMP was provided as 0.5% UMP·2Na^+ weight/weight, added to the control diet, also prepared by Harlan Teklad, corresponding to 240 mg/kg/day UMP. DHA was administered as 300 mg/kg/day in 200 microliter (mcL)/day 5% Arabic Gum solution, while groups not receiving DHA were administered vehicle (5% Arabic Gum) alone. DHA was provided by Nu-Chek Prep (Elysian, MN) and UMP by Numico (Wagenigen, NL).
Gerbils were anesthetized with ketamine and xylazine (80 and 10 mg/kg bwt, i.p.) and sacrificed by immersing the head into liquid nitrogen for 2 min, followed by decapitation. Brains were immediately and quickly (30 seconds) removed using a bone rongeur and stored at −80° C.
Frozen brain hemispheres were weighed and homogenized in 100 volumes of ice-cold deionized water using a tissue degrader (Polytron PT 10-35, Kinematica AG, Switzerland), then analyzed as described in Example 1.
Protein in whole brain homogenate sample was measured for using bicinchoninic acid reagent (Perkin Elmer, Norwalk, Conn., USA). DNA was measured by measuring 460 nm emission of samples on a fluorometer in the presence of bisbenzimidizole, a fluorescent dye known as Hoechst H 33258 (American Hoechst Corporation), which has an excitation maximum at 356 nm and an emission maximum of 458 when bound to DNA.
Male gerbils weighing 80-100 g were divided into 4 groups of 8 gerbils and administered the supplements depicted in Table 1:
Adult gerbils were administered control standard diet (Table 4) with our without 0.5% UMP and/or 300 mg/kg/day DHA, EPA, or AA. Groups not receiving DHA were administered vehicle (5% Arabic Gum) alone.

[4] = postnatal day 20, normalized to DNA
[5] = postnatal day 20, normalized to protein
[6] = gerbil brain, 3 weeks, 0.5% UMP and/or 300 mg/kg/day PUFA, Table 6
[7] = gerbil brain, 4 weeks, normalized to DNA levels, mean +/- SEM
[8] = gerbil brain, 4 weeks, normalized to protein levels, mean +/- SEM
[9] = gerbil, Table 5A study, vs control

CCC=CCC=CCC=CCC=CCC=CCC=CCCC(=O)O [DHA, 4,7,10,13,16,19-docosahexaenoic acid]
increase in synthesis of phospholipids relative to choline alone (control) [1]: more than 2 fold | PC, percent increase over control [2, 4]: 36% | PE, percent increase over control [2, 4]: 38% | PI, percent increase over control [2, 4]: 166% | SM, percent increase over control [2, 4]: 78% | Total Phospholipids, percent increase over control [2, 4]: 30% | PC, percent increase over control [2, 5]: 23% | PE, percent increase over control [2, 5]: 24% | PI, percent increase over control [2, 5]: 141% | SM, percent increase over control [2, 5]: 59% | Total Phospholipids, percent increase over control [2, 5]: 16% | PC [3, 6]: 133 ± 6 | PE [3, 6]: 77 ± 2 | PI [3, 6]: 18 ± 2 | PS [3, 6]: 34 ± 3 | SM [3, 6]: 24 ± 2 | Total PL [3, 6]: 344 ± 16 | PC [3, 7]: 366 ± 13 | PE [3, 7]: 196 ± 18 | PI [3, 7]: 84 ± 13 | PS [3, 7]: 98 ± 7 | SM [3, 7]: 126 ± 8 | Total PL [3, 7]: 909 ± 77 | PC [3, 8]: 185 ± 12 | PE [3, 8]: 78 ± 5 | PI [3, 8]: 32 ± 2 | PS [3, 8]: 39 ± 3 | SM [3, 8]: 56 ± 3 | Total PL [3, 8]: 392 ± 20 | increase in levels of total phospholipids ([3]; gerbil brain, 4 weeks, vs control group): 12% | PtdCho ([3]; gerbil brain, Table 5 part A): 185 ± 12 nmol/mg prt | PtdEtn ([3]; gerbil brain, Table 5 part A): 78 ± 5 nmol/mg prt | PtdIns ([3]; gerbil brain, Table 5 part A): 32 ± 2 nmol/mg prt | PtdSer ([3]; gerbil brain, Table 5 part A): 39 ± 3 nmol/mg prt | SM ([3]; gerbil brain, Table 5 part A): 56 ± 3 nmol/mg prt | Total PL ([3]; gerbil brain, Table 5 part A): 392 ± 20 nmol/mg prt | brain phospholipid levels, in words ([3]; gerbil, 3 weeks): increased phospholipid levels | increase in brain level of PC [3, 9]: 22% | increase in brain level of PE [3, 9]: 20% | increase in brain level of PI [3, 9]: 52% | increase in brain level of sphingomyelin [3, 9]: 24%
